# Experimental data from patent publication US9249118B2, “Purifying crude furan 2,5-dicarboxylic acid by hydrogenation” (Eastman Chemical Company, priority 2012, dated 2016).
# Experiment: solubility of FDCA in water at different temperatures (FIG. 1)
# Format: physicochemical
# Settings: ambient pressure, as the water temperature increases beyond 130° C. (FIG. 1)
# Description: FIG. 1 depicts the solubility of FDCA in water at different temperatures.
# Suitable dissolution temperatures are those effective to dissolve the desired amount of FDCA solids into solution. The hydrogenation solvent composition may be added at (by pre-heating) or heated in the dissolution zone to a temperature of at least 120° C. under a pressure and time sufficient to allow for at least 80 wt. % dissolution, although to reduce the time required for dissolution, it is desirable that the hydrogenation solvent composition temperature is at least 130° C., or at least 135° C., or at least 140° C., or at least 150° C.
structure (smiles),measurement,value
"O=C(O)c1ccc(C(=O)O)o1 [FDCA, Furan 2,5-dicarboxylic acid]",solubility of FDCA in water,increases dramatically
